Experimental data from paper PMC10254235, “Design, Synthesis, and Anti-Cervical Cancer and Reversal of Tumor Multidrug Resistance Activity of Novel Nitrogen-Containing Heterocyclic Chalcone Derivatives” (Molecules, 2023).
Like-named read-outs stand apart in the source and are kept apart here.

Experiments:
[1] = tested on: H8 cells; assay: MTT cytotoxicity assay, normal cervical epithelial H8 cells; type: cell-based, human; conditions: Homo sapiens, 48 h, mean ± SD
Experimental: (§1) HeLa and SiHa cell lines were obtained from the Procell Life Science Technology Co., Ltd. (Wuhan, China); H8 cell line was obtained from the Shanghai HonSun Biological Technology Co., Ltd. (Shanghai, China); HUVEC cell line was obtained from the Saibaikang (Shanghai) Biotechnology Co., Ltd. (Shanghai, China); HeLa/DDP cell line was obtained from the Guangzhou Jenniobio Biotechnology Co., Ltd. (Guangzhou, China). HeLa, SiHa, H8, and HeLa/DDP cells were cultured in DMEM medium (HyClone). The VEGF of 50 ng/mL was used as the promoter of the VEGFR-2 receptor on HUVEC cell membrane surfaces, and their inhibitory effects on VEGFR-2 were determined. All the mediums were supplemented with 10% FBS (HyClone, GE Healthcare, Australia). Cells were maintained at subconfluency at 37 °C in humidified air containing 5% CO2. The cells were monitored daily and maintained at 80% cell density. All compounds tested were dissolved in DMSO and then diluted by the culture medium before the treatment of cultured cells. Identification reports are available for all types of cell lines involved in this study.
(§2) The cytotoxicity of the target compounds were measured in vitro using the MTT assay. Cells grown in the logarithmic phase were counted and seeded in 96-well cell culture plates (5 × 10^3 cells per well) for 24 h to allow attachment of cells to the wall of the plate. […] Next, 20 μL of 5 mg.mL^−1 MTT solution was added to each well and cultured for 4 h. The old solution was discarded, replaced with 150 μL DMSO solution per well, and shaken for 10 min. The OD value was measured under 490 nm, and the inhibition rate was calculated. The nonlinear regression fitting of the cell growth rate was carried out using SPSS 23.0 software, and the IC50 of the compound was calculated. […] There were 6 compound holes in each group, and the experimental results were presented as the average of 3 experiments. A complete medium containing only cells was used as the blank control, whereas a complete medium without cells was the negative control group. Cisplatin and sorafenib were utilized as the positive control group, and the target compound was the experimental intervention group.

[2] = tested on: SiHa cells; assay: MTT antiproliferative assay, SiHa cells; type: cell-based, human; conditions: Homo sapiens, 48 h, mean ± SD
Experimental: as §1, §2

[3] = tested on: HeLa cells; assay: MTT antiproliferative assay, HeLa cells; type: cell-based, human; conditions: Homo sapiens, 48 h
Experimental: as §1, §2

[4] = tested on: HUVEC cells; assay: In vitro HUVEC inhibitory assay (MTT); type: cell-based; conditions: Homo sapiens, 48 h, ± SD
Experimental: as §1, §2
After incubation for 24 h, the cell was collected using centrifugation and washed twice using PBS chilled to 0 °C. Then, the cells were homogenized in RIPA lysis buffer and 1% PMSF, 1% mixed phosphatase inhibitor (Solarbio, Beijing, China). The lysates were incubated on ice for 30 min, intermittently vortexed every 5 min, and centrifuged at 12,000 rpm for 20 min to harvest the supernatants.

[5] = tested on: HeLa/DDP cells; assay: MTT assay, cisplatin-resistant HeLa/DDP cells; type: cell-based, human; conditions: for RI (resistance index): HeLa/DDP versus HeLa; for IC50: Homo sapiens, 48 h, read-out: 48h IC50 HeLa/DDP
Experimental: The cytotoxicity of the target compounds were measured in vitro using the MTT assay. Cells grown in the logarithmic phase were counted and seeded in 96-well cell culture plates (5 × 10^3 cells per well) for 24 h to allow attachment of cells to the wall of the plate. […] Next, 20 μL of 5 mg.mL^−1 MTT solution was added to each well and cultured for 4 h. The old solution was discarded, replaced with 150 μL DMSO solution per well, and shaken for 10 min. The OD value was measured under 490 nm, and the inhibition rate was calculated. The nonlinear regression fitting of the cell growth rate was carried out using SPSS 23.0 software, and the IC50 of the compound was calculated. […] A complete medium containing only cells was used as the blank control, whereas a complete medium without cells was the negative control group.
To reduce the adverse reactions caused by the fixation of drug resistance reversal agents, the concentration that reduces the proliferation rate of tumor cells by less than 10% was selected.

[6] = target: T1, VEGFR-2 (Homo sapiens, UniProt P35968); assay: VEGFR-2 inhibition test (human p-VEGFR-2 ELISA in HeLa cells); type: cell-based; conditions: ± SD, read-out: 48h IC50 VEGFR-2 inhibitory effect
T1 construct: endogenous in cells; host or cells: HeLa cells
T1 sequence (P35968 20-1356): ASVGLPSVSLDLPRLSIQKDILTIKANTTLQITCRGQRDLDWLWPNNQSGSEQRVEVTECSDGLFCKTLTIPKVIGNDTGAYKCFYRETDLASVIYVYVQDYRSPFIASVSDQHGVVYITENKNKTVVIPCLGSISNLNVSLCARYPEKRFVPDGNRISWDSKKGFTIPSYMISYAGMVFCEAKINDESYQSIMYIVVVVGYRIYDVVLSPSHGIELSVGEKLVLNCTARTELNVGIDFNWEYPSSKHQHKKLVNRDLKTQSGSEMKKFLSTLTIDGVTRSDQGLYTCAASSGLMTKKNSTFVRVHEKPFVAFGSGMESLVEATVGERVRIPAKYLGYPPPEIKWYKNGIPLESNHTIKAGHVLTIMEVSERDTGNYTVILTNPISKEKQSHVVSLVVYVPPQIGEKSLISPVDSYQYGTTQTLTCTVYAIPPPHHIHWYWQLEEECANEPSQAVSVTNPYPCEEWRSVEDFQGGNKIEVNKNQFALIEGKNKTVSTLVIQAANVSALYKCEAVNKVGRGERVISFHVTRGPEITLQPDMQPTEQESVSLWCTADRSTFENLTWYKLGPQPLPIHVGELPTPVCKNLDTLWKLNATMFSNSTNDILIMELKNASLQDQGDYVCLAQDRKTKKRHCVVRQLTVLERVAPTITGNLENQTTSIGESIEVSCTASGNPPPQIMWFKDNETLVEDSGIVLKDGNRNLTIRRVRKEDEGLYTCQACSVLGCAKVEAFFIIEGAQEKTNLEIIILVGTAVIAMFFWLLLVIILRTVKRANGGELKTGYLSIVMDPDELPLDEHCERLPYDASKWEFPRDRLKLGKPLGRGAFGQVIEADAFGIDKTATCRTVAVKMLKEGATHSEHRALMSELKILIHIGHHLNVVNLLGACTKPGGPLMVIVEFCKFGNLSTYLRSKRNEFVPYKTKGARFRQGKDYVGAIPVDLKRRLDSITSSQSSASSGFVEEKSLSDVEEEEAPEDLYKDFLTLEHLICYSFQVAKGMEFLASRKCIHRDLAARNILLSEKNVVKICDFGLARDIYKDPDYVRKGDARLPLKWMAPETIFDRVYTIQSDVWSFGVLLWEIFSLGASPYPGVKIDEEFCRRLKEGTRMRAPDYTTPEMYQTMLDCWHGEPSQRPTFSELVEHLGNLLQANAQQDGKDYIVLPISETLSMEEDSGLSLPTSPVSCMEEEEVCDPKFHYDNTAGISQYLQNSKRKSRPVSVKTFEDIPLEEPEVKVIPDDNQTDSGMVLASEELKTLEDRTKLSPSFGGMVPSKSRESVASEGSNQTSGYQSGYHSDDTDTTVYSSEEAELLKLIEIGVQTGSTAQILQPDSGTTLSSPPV
Experimental: Specimens, standards, and HRP-labeled detection antibodies were added sequentially to the pre-covered microtiter wells containing phosphorylated vascular endothelial growth factor receptor 2 (p-VEGFR2) antibodies, warmed, and washed thoroughly. The substrate TMB was added for color development. This substrate is converted to blue using peroxidase catalysis to a final yellow color due to the action of acid. […] Curve fitting was performed using SPSS 23.0 software to calculate IC50.

[7] = tested on: VEGFR-2; conditions: read-out: IC50 against VEGFR-2; cited from earlier work
[8] = tested on: HeLa cells; assay: Apoptosis analysis, Annexin V-FITC/PI flow cytometry; type: cell-based, human; conditions: 4 μM, 24 h
Experimental: After incubation, cells were harvested and incubated using […] of Annexin-V/FITC (BD, America) in binding buffer (10 mM HEPES, 140 mM NaCl, and 2.5 mM CaCl2 at pH 7.4) at room temperature for 15 min. The PI solution was then added to the medium for another 10 min incubation. Almost 10,000 events were collected for each sample and analyzed using flow cytometry (BD, LSRFortessa, New York, NY, USA). The procedure for the remaining Western blot was the same as in Section 3.3.3.

[9] = tested on: MCF-7 cells; conditions: cytotoxic effect; cited from earlier work
[10] = tested on: HepG2 cells; conditions: cited from earlier work
[11] = tested on: PC-3 cells; conditions: cytotoxic effect; cited from earlier work
[12] = MTT, mean ± SD, read-out: 48h IC50 HeLa
[13] = cisplatin-resistant HeLa/DDP cells, single agent
[14] = single agent, read-out: 48h IC50 HeLa (Table 4)

SMILES: COc1cc(O)c(C(=O)/C=C/c2ccc(CN3CCC(C)CC3)cc2)cc1CN1CCOCC1 [6o, (E)-1-(2-hydroxy-4-methoxy-5-(morpholinomethyl)phenyl)-3-(4-((4-methylpiperidin-1-yl)methyl)phenyl)prop-2-en-1-one]
- melting point: 104.2 to 105.4 °C
- IC50 [1]: 80 ± 8.92 µM
- IC50 [2]: 63.7 ± 2.18 µM
- IC50 [3, 12]: 65.8 ± 1.36 µM

SMILES: O=C(/C=C/c1ccccc1)c1ccccc1 [Chalcone]
- IC50 [4]: 77.5 ± 4.2 µM
- IC50 [1]: 77.7 ± 6.85 µM
- RI (resistance index) ([5]; single agent): 1.23
- IC50 [5, 13]: 91 ± 6.22 µM
- IC50 [2]: 66.5 ± 2.88 µM
- IC50 [3, 12]: 74 ± 4.48 µM
- IC50 [3, 14]: 74 ± 4.48 µM
- IC50 [6]: > 20 µM

SMILES: CNC(=O)c1cc(Oc2ccc(C(=O)/C=C/c3cccc(Br)c3)cc2)ccn1 [compound 7]
- IC50 [7]: 0.72 µM

SMILES: COc1cc(O)c(C(=O)/C=C/c2ccc(CN3CCC(C)CC3)cc2)cc1CN1CCCC1 [6k, (E)-1-(2-hydroxy-4-methoxy-5-(pyrrolidin-1-ylmethyl)phenyl)-3-(4-((4-methylpiperidin-1-yl)methyl)phenyl)prop-2-en-1-one]
- IC50 [4]: 20.2 ± 1.19 µM
- IC50 [1]: 30.1 ± 0.44 µM
- RI (resistance index) ([5]; single agent): 1.13
- IC50 [5, 13]: 17.3 ± 2.07 µM
- IC50 [2]: 24.83 ± 0.17 µM
- IC50 [3, 12]: 15.22 ± 0.08 µM
- IC50 [3, 14]: 15.22 ± 0.08 µM
- IC50 [6]: 1.67 ± 0.18 µM

SMILES: CNC(=O)c1cc(Oc2ccc(NC(=O)Nc3ccc(Cl)c(C(F)(F)F)c3)cc2)ccn1 [Sorafenib, reference compound]
- IC50 [4]: 9.2 ± 1.22 µM
- proapoptotic rate [8]: 31.7%
- IC50 [1]: 18.4 ± 1.04 µM
- IC50 ([5]; HeLa): 12.4 ± 0.54 µM
- IC50 [2]: 15 ± 1.2 µM
- IC50 [3, 12]: 10.8 ± 0.15 µM
- IC50 [3, 14]: 10.8 ± 0.15 µM

SMILES: CNC(=O)c1cc(Oc2ccc(C(=O)/C=C/c3cc(OC)c(OC)c(OC)c3)cc2)ccn1 [compound 8]
- IC50 [9]: 3.88 ± 1.03 µM
- IC50 [7]: 3.2 µM
- cytotoxic activity relative to sorafenib ([10]; HepG2, MCF-7 and PC-3 cells): 1.03–6.14 times
- IC50 ([10]; cytotoxic effect, HepG2 cells): 0.56 ± 0.83 µM
- IC50 [11]: 3.15 ± 0.81 µM

SMILES: CNC(=O)c1cc(Oc2ccc(C(=O)/C=C/c3ccccc3)cc2)ccn1 [compound 9]
- IC50 [7]: 1.1 µM
